Measured values published in ChEMBL document CHEMBL1135219, “Anti-HIV-1 activities and pharmacokinetics of new arylpiperazinyl fluoroquinolones” (Bioorg Med Chem Lett, 2002).

Tests used:
MT4 [1] = assay: The compound was tested for cytotoxicity against mock-infected MT-4 cells.; type: functional; details: Homo sapiens
MT4 [2] = assay: The compound was tested against HIV-1(IIIB) replication on the inhibition of virus -induced cytopathogenicity in MT-4 cells.; type: functional, cell-based; details: Homo sapiens
[3] = Peak concentration (Cmax) at a dose of 20 mg/kg in rats; type: ADME, organism-based; set-up: dose 20 mg/kg; details: rat, in vivo
[4] = Time for peak concentration (tmax) at a dose of 20 mg/kg in rats; type: ADME, organism-based; set-up: dose 20 mg/kg; details: rat, in vivo
MT4 [5] = assay: The compound was tested against HIV-1(IIIB) replication on the inhibition of virus -induced cytopathogenicity in MT-4 cells; type: functional, cell-based; details: Homo sapiens
MT4 [6] = assay: The compound was tested for cytotoxicity against mock-infected MT-4 cells; type: functional; details: Homo sapiens
[7] = Area under curve was determined using trapezoidal rule after oral administration in cynomolgus monkeys; type: ADME; details: cercopithecidae, in vivo
[8] = Mean residence time was determined after intravenous administration in cynomolgus monkeys; type: ADME, organism-based; details: cercopithecidae, in vivo
[9] = Bioavailability was reported in cynomolgus monkeys (ratio of AUC in oral administration to that of intravenous administration); type: ADME, organism-based; details: cercopithecidae, in vivo, read-out: BA
[10] = The distribution volume after intravenous administration in cynomolgus monkeys; type: ADME, organism-based; details: cercopithecidae, in vivo, read-out: Vdss
[11] = The time for peak concentration value after oral administration in cynomolgus monkeys; type: ADME, organism-based; details: cercopithecidae, in vivo
[12] = Half-life period after intravenous administration in cynomolgus monkeys; type: ADME, organism-based; details: cercopithecidae, in vivo
[13] = Half-life period after oral administration in cynomolgus monkeys; type: ADME, organism-based; details: cercopithecidae, in vivo
[14] = Area under curve was determined using trapezoidal rule after intravenous administration in cynomolgus monkeys; type: ADME; details: cercopithecidae, in vivo
[15] = The total clearance was determined after intravenous administration in cynomolgus monkeys; type: ADME, organism-based; details: cercopithecidae, in vivo, read-out: CLtotal (converted)
[16] = The peak concentration (Cmax) value after oral administration in cynomolgus monkeys; type: ADME, organism-based; set-up: route oral; details: cercopithecidae, in vivo
[17] = Time for peak concentration (tmax) at a dose of 10 mg/kg in rats; type: ADME, organism-based; set-up: dose 10 mg/kg; details: rat, in vivo
[18] = Peak concentration (Cmax) at a dose of 10 mg/kg in rats; type: ADME, organism-based; set-up: dose 10 mg/kg; details: rat, in vivo

Structure (SMILES)	CC50 (MT4 [1]) [nM]	IC50 (MT4 [2]) [nM]	Cmax [3] [ng/mL]	Tmax [4] [h]	IC50 (MT4 [5]) [nM]	CC50 (MT4 [6]) [nM]	other results
CCn1cc(C(=O)O)c(=O)c2cc(F)c(N3CCN(c4ccccn4)CC3)c(C(F)(F)F)c21	370	26	6740	2			
COc1ccccc1N1CCN(c2c(F)cc3c(=O)c(C(=O)O)cn(C)c3c2C(F)F)CC1					350	11000	
Cn1cc(C(=O)O)c(=O)c2cc(F)c(N3CCN(c4ccccn4)CC3)c(C(F)(F)F)c21	220	14	26400	1			AUC [7]: 17200 ng·h/mL; MRT [8]: 9.3 h; bioavailability [9]: 93.5%; Vd [10]: 0.509 L/kg; Tmax [11]: 2 h; half-life [12]: 8.8 h; half-life [13]: 7.5 h; AUC [14]: 18400 ng·h/mL; clearance [15]: 0.928 mL/min/kg; Cmax [16]: 1400 ng/mL
CCn1cc(C(=O)O)c(=O)c2cc(F)c(N3CCN(c4ncccn4)CC3)c(C(F)(F)F)c21	1500	95	5460	2			
Cn1cc(C(=O)O)c(=O)c2cc(F)c(N3CCN(c4ncccn4)CC3)c(C(F)(F)F)c21	890	49	58500	1			AUC [7]: 18400 ng·h/mL; MRT [8]: 8.2 h; bioavailability [9]: 112%; Vd [10]: 0.491 L/kg; Tmax [11]: 4 h; half-life [12]: 7.6 h; half-life [13]: 8.7 h; AUC [14]: 16400 ng·h/mL; clearance [15]: 1.08 mL/min/kg; Cmax [16]: 1500 ng/mL
CCn1cc(C(=O)O)c(=O)c2cc(F)c(N3CCN(c4ccccn4)CC3)c(C(F)F)c21					890	4100	
CCn1cc(C(=O)O)c(=O)c2cc(F)c(N3CCN(c4ccccc4OC)CC3)c(C(F)(F)F)c21	750	110					
O=C(O)c1cn(C2CC2)c2c(C(F)F)c(N3CCN(c4ncccn4)CC3)c(F)cc2c1=O					3700	21000	
COc1ccccc1N1CCN(c2c(F)cc3c(=O)c(C(=O)O)cn(C4CC4)c3c2C(F)F)CC1	12000	560					
O=C(O)c1cn(C2CC2)c2c(C(F)F)c(N3CCN(c4ccccn4)CC3)c(F)cc2c1=O					490	9200	
O=C(O)c1cn(C2CC2)c2c(C(F)(F)F)c(N3CCN(c4ccccn4)CC3)c(F)cc2c1=O	1400	65	5830	2			MRT [8]: 0.8 h; bioavailability [9]: 4.3%; Vd [10]: 0.225 L/kg; Tmax [11]: 2 h; half-life [12]: 0.7 h; AUC [14]: 3500 ng·h/mL; clearance [15]: 4.89 mL/min/kg; Cmax [16]: 100 ng/mL
CCn1cc(C(=O)O)c(=O)c2cc(F)c(N3CCN(c4ncccn4)CC3)c(C(F)F)c21	20000	470					
Cn1cc(C(=O)O)c(=O)c2cc(F)c(N3CCN(c4ncccn4)CC3)c(C(F)F)c21	13000	310					
Cn1cc(C(=O)O)c(=O)c2cc(F)c(N3CCN(c4ccccn4)CC3)c(C(F)F)c21					240	9200	
CCn1cc(C(=O)O)c(=O)c2cc(F)c(N3CCN(c4ccccc4OC)CC3)c(C(F)F)c21					220	8300	
COc1ccccc1N1CCN(c2c(F)cc3c(=O)c(C(=O)O)cn(C4CC4)c3c2C(F)(F)F)CC1	870	69	3460	4			
O=C(O)c1cn(C2CC2)c2c(C(F)(F)F)c(N3CCN(c4ncccn4)CC3)c(F)cc2c1=O	5200	190	7020	1			
COc1ccccc1N1CCN(c2c(F)cc3c(=O)c(C(=O)O)cn(C)c3c2C(F)(F)F)CC1	500	54					Tmax [17]: 2 h; Cmax [18]: 2770 ng/mL
